Source: ChEMBL document CHEMBL2375210, “Caulerprenylols A and B, two rare antifungal prenylated para-xylenes from the green alga Caulerpa racemosa” (Bioorg Med Chem Lett, 2013)
pIC50: −log10 of the molar value. ≈ marks a conversion by molar mass, not a printed value.

Experiments:
[1] = test system: Aspergillus fumigatus; experiment: Antifungal activity against Aspergillus fumigatus ATCC 07544 after 24 hrs to 1 week; assay type: functional
[2] = test system: Cryptococcus neoformans; experiment: Antifungal activity against Cryptococcus neoformans ATCC 32609 after 24 hrs to 1 week; assay type: functional
[3] = test system: Trichophyton rubrum; experiment: Antifungal activity against Trichophyton rubrum Cmccftla after 24 hrs to 1 week; assay type: functional
[4] = test system: Nakaseomyces glabratus; experiment: Antifungal activity against Candida glabrata ATCC 537 after 24 hrs to 1 week; assay type: functional
[5] = test system: HL-60; experiment: Cytotoxicity against human HL60 cells by MTT assay; assay type: cell-based
[6] = test system: A549; experiment: Cytotoxicity against human A549 cells by MTT assay; assay type: cell-based

Compound	MIC80 [1]	MIC80 [2]	MIC80 [3]	MIC80 [4]	pIC50 [5]	pIC50 [6]
Cc1ccc(C)c(/C=C/C(C)(C)O)c1/C=C/C(C)(C)O	≥ 64 µg/mL	64 µg/mL (≈ 233 µM)	64 µg/mL (≈ 233 µM)	64 µg/mL (≈ 233 µM)	≤ 4.00	≤ 4.00
CC(C)=C[C@H]1c2c(C)ccc(C)c2[C@@H](O)[C@@H]1C(C)(C)O (relative stereo)	≥ 64 µg/mL	4 µg/mL (≈ 14.6 µM)	16 µg/mL (≈ 58.3 µM)	4 µg/mL (≈ 14.6 µM)	≤ 4.00	≤ 4.00
C[C@@H]1[C@H](O)[C@@H](C)/C=C/C=C/C=C/C=C/C=C/C=C/C=C/[C@H](O[C@@H]2O[C@H](C)[C@@H](O)[C@H](N)[C@@H]2O)C[C@@H]2O[C@](O)(C[C@@H](O)C[C@@H](O)[C@H](O)CC[C@@H](O)C[C@@H](O)CC(=O)O[C@H]1C)C[C@H](O)[C@H]2C(=O)O [AMPHOTERICIN B]		4 µg/mL (≈ 4.33 µM)	1 µg/mL (≈ 1.08 µM)	2 µg/mL (≈ 2.16 µM)		
COc1cccc2c1C(=O)c1c(O)c3c(c(O)c1C2=O)C[C@@](O)(C(=O)CO)C[C@@H]3O[C@H]1C[C@H](N)[C@H](O)[C@H](C)O1 [DOXORUBICIN]					6.92	
